Test results as given in publication PMC12529149, “Chemical and Antiplasmodial Investigations on Carapa-Derived Gedunin Derivatives and Semisynthetic 6- and 7‑Substituted Gedunin Analogues from the Brazilian Amazon” (ACS Omega, 2025).
Several values for one entry are separate records, joined by “and”; a condition that tells them apart may be missing. Equal values may be shown once. Read-outs that look alike come from different tables or passages of the source.

Columns and labels:
[1] = tested on: K1 strain of Plasmodium falciparum; experiment: In vitro susceptibility assay (microtest), P. falciparum K1 growth inhibition; format: cell-based; conditions: Plasmodium falciparum, K1, 48 h, K1 strain, 48 h, CI95 in brackets; read-out: P. falciparum IC50 (CI95)
Protocol: In vitro culture of the K1 strain of P. falciparum (MRA-159, MR4, ATCC, Manassas, Virginia, USA) proceeded following an established method with modifications. Briefly, this method involved the growth of parasites in human type A+ red blood cells and RPMI 1640 medium supplemented with 10% type A+ human plasma at 37 °C under an atmosphere of 5% O2, 5% CO2, and 90% N2.
As initial condition for the susceptibility assay, cultures were synchronized by treatment with 5% D-sorbitol, which provided young trophozoites (ring stages). Performance of the microtest followed a previously described procedure with modifications. Compounds were dissolved in DMSO with the aid of an ultrasound bath to provided stock solutions. […] These diluted samples were evaluated in duplicate in a 96-well test plate. A suspension of parasitized red blood cells (pRBCs) at 2% hematocrit and 1% parasitemia was added to each well. Microplate incubation proceeded for 48 h at 37 °C under the same atmosphere used for parasite culture in two independent experiments conducted on different days. Control wells contained chloroquine (0.003–2.5 μg/mL) and quinine (0.003–2.5 μg/mL). Six (6) control (blank) wells were prepared with pRBCs suspension. Six cosolvent control wells were prepared with 1% DMSO and pRBCs suspension. An average of these 12 controls defined drug-free (untreated) growth. After the incubation period, thin blood smears of the contents of each well were prepared on microscope slides. Optical microscopy was used to analyze the blood smears and establish the parasitemia of each well. Interpolation of the nonlinear curve using GraphPad Prism permitted the calculation of estimates of the sample concentrations able to inhibit 50% of parasite growth (IC50) compared to drug-free controls.

MRC-5 human fibroblasts [2] = experiment: Cytotoxicity/cell viability assay (Alamar blue); format: cell-based; conditions: MRC5, MRC-5, tested at 50 μg/mL for 48 h, read-out: fibroblasts IC50
Protocol: Medical Research Council cell strain 5 (MRC-5) human fetal fibroblasts were cultivated in Dulbecco′s modified Eagle’s medium (DMEM) supplemented with 10% bovine fetal serum and 1% antibiotic at 37 °C under an atmosphere of 5% CO2. Cell viability assessment relied on the Alamar blue method. […] Doxorubicin at concentrations of 0.312, 0.625, 1.25, 2.50, 5.00, 10.0, and 20.0 μM was used as a positive control for cell death. The negative control wells received DMSO (sample diluent) at 0.1%. In preparation for the assay, this method involved plating 0.5 × 10^4 cells/well on 96 well test plates and incubating for 24 h under the same conditions used for cell culture. This initial 24 h period was necessary for cell adhesion. The assay consisted of triplicate addition of diluted samples and controls to wells followed by 48 h of incubation. For quantification of viable cells, 10 μL of 0.4% Alamar blue (Sigma-Aldrich)–which works out to an in-well concentration of 0.02%–were added to each well 3 h before the end of the treatment. Alamar blue was allowed to react for 3 h followed by quantification of the optical density (OD) of each well at an excitation wavelength of 465 nm and emission wavelength of 540 nm using an ELISA plate reader (DTX-800, Beckman Coulter). Comparison of individual sample viability OD to that of controls (blanks) afforded the cell viability. Interpolation of the nonlinear curve using GraphPad Prism software permitted the calculation of estimates of the sample IC50 values compared to drug-free controls.

[3] = tested on: P. falciparum K1 strain vs MRC-5 human fibroblasts; experiment: Selectivity index, IC50 (human fibroblasts) ÷ IC50 (P. falciparum); format: cell-based, Plasmodium falciparum
From the text: Calculation of the selectivity index (SI) using the following formula afforded the relative toxicity of each sample to human fibroblasts and to P. falciparum blood stages: SI = IC50 (human fibroblasts) ÷ IC50 (P. falciparum).

[4] = tested on: variety of P. falciparum strains; conditions: chloroquine-resistant (Dd2, K1, W2) and chloroquine-sensitive (3D7, D6, D10, FCR3, FCR3TC) strains; ref literature (numbers not shown); read-out: IC50, in vitro growth; cited from earlier work
[5] = tested on: P. falciparum FCR3 strain; parameters: method as in literature (numbers not shown); conditions: ref literature (numbers not shown); cited from earlier work
P. falciparum K1 strain = tested on: P. falciparum K1 strain; parameters: method as in earlier work; conditions: ref previous reports incl. authors' earlier work (numbers not shown); cited from earlier work
P. falciparum Dd2 strain = conditions: ref recent study on C. guianensis (number not shown); cited from earlier work
P. falciparum W2 strain = tested on: P. falciparum W2 strain; parameters: method as in literature (numbers not shown); conditions: ref literature (numbers not shown), listed as gedunin; cited from earlier work
P. falciparum D10 strain = tested on: P. falciparum D10 strain; parameters: method as in literature (number not shown); conditions: ref literature (number not shown); cited from earlier work
Plasmodium berghei = conditions: P. berghei-infected mice, cited from earlier work
[6] = tested on: mouse mammary carcinoma (FM3A) cell cultures; parameters: method as in literature (number not shown); conditions: ref literature (number not shown); cited from earlier work
Hs578Bst cells = tested on: Hs578Bst cells; parameters: method as in literature (number not shown); conditions: immortalized, adult-derived normal cells; ref literature (number not shown); cited from earlier work
[7] = tested on: human mammary epithelial cells (HME); parameters: method as in literature (number not shown); conditions: ref literature (number not shown); cited from earlier work
MRC-5 human fibroblasts [8] = tested on: MRC-5 human fibroblasts; parameters: method as in authors' previous evaluation (number not shown); conditions: ref authors' previous evaluation (number not shown); cited from earlier work

SMILES | IC50 [1] | IC50 (MRC-5 human fibroblasts [2]) [nM] | selectivity index (SI) [3] | IC50 [4] [nM] | IC50 [5] [nM] | IC50 (P. falciparum K1 strain) [nM] | IC50 (P. falciparum Dd2 strain) [nM] | IC50 (P. falciparum W2 strain) [nM] | IC50 (P. falciparum D10 strain) [nM] | suppression of parasite growth vs untreated controls (Plasmodium berghei; oral or subcutaneous 50–90 mg/kg/day, ref literature (numbers not shown)) | toxicity to FM3A cells [6] | toxicity to Hs578Bst cells (Hs578Bst cells) | toxicity to HME cells [7] | IC50 (MRC-5 human fibroblasts [8]) [nM] | suppression of parasitemia (Plasmodium berghei; oral 50–100 mg/kg/day, ref authors' earlier work (number not shown))
CC(=O)O[C@@H]1C[C@H]2C(C)(C)C(=O)C=C[C@]2(C)[C@H]2CC[C@@]3(C)[C@H](c4ccoc4)OC(=O)[C@H]4O[C@]43[C@@]21C (single isomer, unassigned) [compound 4, gedunin] | 1.4 µg/mL and 2.8 µM | > 100000 | >37 | 20 to 3100 | 2500 | 1500 | 2800 ± 200 | 1310 ± 420 | 1660 ± 370 | failed to significantly suppress parasite growth | toxic | no appreciable toxicity | no appreciable toxicity | – | –
CC(=O)O[C@H]1[C@@H](OC(C)=O)[C@]2(C)[C@H](CC[C@@]3(C)[C@H](c4ccoc4)OC(=O)[C@H]4O[C@@]423)[C@@]2(C)C=CC(=O)C(C)(C)[C@H]12 [compound 12, 6α-acetoxygedunin] | – | – | – | – | – | 7000 | 2100 ± 200 | – | – | – | – | – | – | > 110000 | 40–66%
